Measured values reported in ChEMBL document CHEMBL1201862, “PubChem BioAssay data set” (2004).
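In this assay, cells in 96-well plates receive the compound at five concentrations for 48 hours. Endpoints are linearly interpolated between the surrounding concentrations. Abbreviation: GI50, concentration required for 50% inhibition of growth.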 Activity calls are given as the source filed them. Cut-off read from the data, not from the text of the source: active = GI50 up to about 1.1 µM and inactive = higher.

Legend:
Experiment in all cases: inhibition of tumour cell growth, NCI panel, 48 h
HOP-18 = system: HOP-18
U-251 = system: U-251
SF-268 = system: SF-268
SF-295 = system: SF-295
HCT-15 = system: HCT-15
SNB-75 = system: SNB-75
SK-MEL-28 = system: SK-MEL-28
HOP-92 = system: HOP-92
NCI-H226 = system: NCI-H226
MOLT-4 = system: MOLT-4
COLO 205 = system: COLO 205
SK-MEL-2 = system: SK-MEL-2
DMS-273 = system: DMS-273
DMS-114 = system: DMS-114
SF-539 = system: SF-539
CAKI-1 = system: CAKI-1
UACC-257 = system: UACC-257
HCC 2998 = system: HCC 2998
A549 = system: A549
NCI-H522 = system: NCI-H522
M19-MEL = system: M19-MEL
HL-60 = system: HL-60
SR = system: SR
OVCAR-8 = system: OVCAR-8
UO-31 = system: UO-31
SK-MEL-5 = system: SK-MEL-5
K562 = system: K562
LXFL 529 = system: LXFL 529
ACHN = system: ACHN
Malme-3M = system: Malme-3M
OVCAR-3 = system: OVCAR-3
OVCAR-4 = system: OVCAR-4
SW-620 = system: SW-620
TK-10 = system: TK-10
SNB-19 = system: SNB-19
SN12C = system: SN12C
HCT-116 = system: HCT-116
CCRF-CEM = system: CCRF-CEM
KM-20L2 = system: KM-20L2
UACC-62 = system: UACC-62
RPMI-8226 = system: RPMI-8226
786-0 = system: 786-0
KM12 = system: KM12
EKVX = system: EKVX
HT-29 = system: HT-29
HOP-62 = system: HOP-62
NCI-H460 = system: NCI-H460
M14 = system: M14
OVCAR-5 = system: OVCAR-5
LOX IMVI = system: LOX IMVI
IGROV-1 = system: IGROV-1
SK-OV-3 = system: SK-OV-3
A498 = system: A498
MCF7 = system: MCF7
DLD-1 = system: DLD-1
NCI-H23 = system: NCI-H23
RXF 393 = system: RXF 393
NCI/ADR-RES = system: NCI/ADR-RES
SNB-78 = system: SNB-78

For `C=CCCCCC1CCC2CCC(CCCCC=C)N12` (stereo unspecified), the GI50 (HOP-18) was 21.3 µM (inactive), the GI50 (U-251) was 20 µM (inactive) and the GI50 (SF-268) was 14.7 µM (inactive). The GI50 (SF-295) was 13.4 µM (inactive), the GI50 (HCT-15) was 6.3 µM and the GI50 (SNB-75) was 28.1 µM (inactive). The GI50 (SK-MEL-28) was 17.7 µM (inactive), the GI50 (HOP-92) was 10.3 µM (inactive) and the GI50 (NCI-H226) was 18.2 µM (inactive). For the same compound, the GI50 (MOLT-4) was 15 µM (inactive), the GI50 (COLO 205) was 16.2 µM (inactive) and the GI50 (SK-MEL-2) was 10.7 µM (inactive). For the same compound, the GI50 (DMS-273) was 20 µM (inactive), the GI50 (DMS-114) was 15.7 µM (inactive) and the GI50 (SF-539) was 16.9 µM (inactive). The GI50 (CAKI-1) was 29.1 µM (inactive), the GI50 (UACC-257) was 15.2 µM (inactive) and the GI50 (HCC 2998) was 16.1 µM (inactive). The GI50 (A549) was 16.1 µM (inactive), the GI50 (NCI-H522) was 14.2 µM (inactive) and the GI50 (M19-MEL) was 20.4 µM (inactive). For the same compound, the GI50 (HL-60) was 14.5 µM (inactive), the GI50 (SR) was 14.2 µM (inactive) and the GI50 (OVCAR-8) was 17.7 µM (inactive). For the same compound, the GI50 (UO-31) was 13.2 µM (inactive), the GI50 (SK-MEL-5) was 13.9 µM (inactive) and the GI50 (K562) was 12.1 µM (inactive). For the same compound, the GI50 (LXFL 529) was 14 µM (inactive), the GI50 (ACHN) was 14.6 µM (inactive) and the GI50 (Malme-3M) was 15.8 µM (inactive). For the same compound, the GI50 (OVCAR-3) was 15.1 µM (inactive), the GI50 (OVCAR-4) was 13 µM (inactive) and the GI50 (SW-620) was 15.1 µM (inactive). The GI50 (TK-10) was 16.6 µM (inactive), the GI50 (SNB-19) was 19 µM (inactive) and the GI50 (SN12C) was 15.7 µM (inactive). For the same compound, the GI50 (HCT-116) was 14.2 µM (inactive), the GI50 (CCRF-CEM) was 11.6 µM (inactive) and the GI50 (KM-20L2) was 12.1 µM (inactive). For the same compound, the GI50 (UACC-62) was 15.7 µM (inactive), the GI50 (RPMI-8226) was 16.1 µM (inactive) and the GI50 (786-0) was 13.7 µM (inactive). For the same compound, the GI50 (KM12) was 15.8 µM (inactive), the GI50 (EKVX) was > 10 µM (inactive) and the GI50 (HT-29) was 9.38 µM (inactive). For the same compound, the GI50 (HOP-62) was 16 µM (inactive), the GI50 (NCI-H460) was 12.4 µM (inactive) and the GI50 (M14) was 15.4 µM (inactive).
With `COc1cc([C@@H]2c3cc4c(cc3[C@@H](NCCCN(C)C)[C@H]3COC(=O)[C@H]23)OCO4)cc(OC)c1O` the GI50 (U-251) was 0.242 µM (active), the GI50 (OVCAR-5) was 1.15 µM (inactive) and the GI50 (SF-295) was 0.0995 µM (active). The GI50 (HCT-15) was 0.513 µM, the GI50 (LOX IMVI) was 0.181 µM (active) and the GI50 (MOLT-4) was 0.0222 µM (active). The GI50 (DMS-273) was 0.164 µM (active), the GI50 (SF-539) was 0.376 µM (active) and the GI50 (HCC 2998) was 0.838 µM (active). For the same compound, the GI50 (A549) was 0.142 µM (active), the GI50 (NCI-H522) was 0.637 µM (active) and the GI50 (M19-MEL) was 0.53 µM (active). The GI50 (HL-60) was 0.0582 µM (active), the GI50 (UO-31) was 0.423 µM (active) and the GI50 (SK-MEL-5) was 0.212 µM (active). The GI50 (ACHN) was 0.076 µM (active), the GI50 (Malme-3M) was 0.379 µM (active) and the GI50 (OVCAR-3) was 0.849 µM (active). The GI50 (SW-620) was 0.346 µM (active), the GI50 (SNB-19) was 0.22 µM (active) and the GI50 (HCT-116) was 0.658 µM (active). For the same compound, the GI50 (CCRF-CEM) was 0.098 µM (active), the GI50 (KM-20L2) was 0.716 µM (active) and the GI50 (RPMI-8226) was 0.525 µM (active). For the same compound, the GI50 (IGROV-1) was 0.653 µM (active), the GI50 (SK-OV-3) was 0.137 µM (active) and the GI50 (KM12) was 0.769 µM (active). The GI50 (EKVX) was 0.745 µM (active), the GI50 (HT-29) was 0.916 µM (active) and the GI50 (NCI-H460) was 0.0232 µM (active).
For `COc1cc2c(cc1OC)-c1c3c(cc4c1[C@@H](C2)N(C)CC4)OCO3`, the GI50 (HOP-18) was 18.2 µM (inactive), the GI50 (A498) was 4.69 µM (inactive) and the GI50 (U-251) was 10.8 µM (inactive). For the same compound, the GI50 (OVCAR-5) was 9.64 µM (inactive), the GI50 (SF-268) was 7.69 µM (inactive) and the GI50 (SF-295) was 1.64 µM (inactive). For the same compound, the GI50 (HCT-15) was 5.77 µM, the GI50 (SNB-75) was 7.29 µM (inactive) and the GI50 (SK-MEL-28) was 12.2 µM (inactive). The GI50 (LOX IMVI) was 3.78 µM (inactive), the GI50 (HOP-92) was 6.78 µM (inactive) and the GI50 (NCI-H226) was 7.06 µM (inactive). The GI50 (MOLT-4) was 3.85 µM (inactive), the GI50 (COLO 205) was 4.23 µM (inactive) and the GI50 (SK-MEL-2) was 10.9 µM (inactive). For the same compound, the GI50 (DMS-273) was 3.52 µM (inactive), the GI50 (DMS-114) was 8.43 µM (inactive) and the GI50 (SF-539) was 5.94 µM (inactive). The GI50 (CAKI-1) was 6.01 µM (inactive), the GI50 (UACC-257) was 11.6 µM (inactive) and the GI50 (HCC 2998) was 9.35 µM (inactive). The GI50 (MCF7) was 1.94 µM (inactive), the GI50 (A549) was 3.34 µM (inactive) and the GI50 (NCI-H522) was 6.7 µM (inactive). The GI50 (DLD-1) was 6 µM (inactive), the GI50 (M19-MEL) was 10.4 µM (inactive) and the GI50 (HL-60) was 7.26 µM (inactive). For the same compound, the GI50 (NCI-H23) was 10.2 µM (inactive), the GI50 (OVCAR-8) was 4.59 µM (inactive) and the GI50 (UO-31) was 11.8 µM (inactive). The GI50 (SK-MEL-5) was 7.52 µM (inactive), the GI50 (K562) was 5.36 µM (inactive) and the GI50 (Malme-3M) was 9.14 µM (inactive). For the same compound, the GI50 (OVCAR-3) was 13.6 µM (inactive), the GI50 (RXF 393) was 8.04 µM (inactive) and the GI50 (OVCAR-4) was 8.26 µM (inactive). For the same compound, the GI50 (SW-620) was 3.92 µM (inactive), the GI50 (SNB-19) was 5.74 µM (inactive) and the GI50 (SN12C) was 6.14 µM (inactive). For the same compound, the GI50 (HCT-116) was 2.87 µM (inactive), the GI50 (CCRF-CEM) was 3.96 µM (inactive) and the GI50 (KM-20L2) was 3.44 µM (inactive). For the same compound, the GI50 (UACC-62) was 8.38 µM (inactive), the GI50 (RPMI-8226) was 5.74 µM (inactive) and the GI50 (IGROV-1) was 9.62 µM (inactive). For the same compound, the GI50 (SK-OV-3) was 12.1 µM (inactive), the GI50 (NCI/ADR-RES) was 5.62 µM (inactive) and the GI50 (KM12) was 7.4 µM (inactive). The GI50 (SNB-78) was 11.6 µM (inactive), the GI50 (EKVX) was 11.4 µM (inactive) and the GI50 (HT-29) was 6.4 µM (inactive). For the same compound, the GI50 (HOP-62) was 3.57 µM (inactive) and the GI50 (NCI-H460) was 2.53 µM (inactive).
